Read-outs that look alike come from different tables or passages of the source.
Assays:
Assay type in all cases: cell-based, Mycobacterium tuberculosis
[1] = system: JNJ-6640-treated M. tuberculosis
[2] = system: M. tuberculosis CRISPRi purF knockdown strains
[3] = system: M. tuberculosis H37Rv CRISPRi PurF low knockdown strain; test: microbe, parasite or virus in culture

With Nc1nc2nc[nH]c2c(=O)[nH]1 [Guanine] the “effect of nucleobase addition on JNJ-6640-treated M. tuberculosis” value (“effect of nucleobase addition” for short) [1] was “no substantial effect”.

With Nc1ncnc2[nH]cnc12 [Adenine] the “effect of nucleobase addition” value [1] was “no substantial effect” and the “effect on rescue of purF knockdown” value [2] was “limited effect”.

In the case of COc1nc2ccc(Br)cc2cc1[C@@H](c1ccccc1)[C@@](O)(CCN(C)C)c1cccc2ccccc12 [Bedaquiline], the EC50 [3] is reported as 44 nM, the “change in susceptibility following purF transcript knockdown” value [3] is reported as “no change” and the EC50 ([3]; Mycobacterium tuberculosis, H37RV) is reported as 61 nM.

For O=c1[nH]c(=O)c2nc[nH]c2[nH]1 [Xanthine], the “effect of nucleobase addition” value [1] was “no substantial effect”.

For O=c1[nH]cnc2nc[nH]c12 [Hypoxanthine], the “effect of nucleobase addition” value [1] was “rescue”, the “rescue of JNJ-6640 activity” value [1] was “rescues JNJ-6640 activity” and the “concentration partially rescuing inhibition of de novo purine biosynthesis” value [2] was “exceeding 0.1 mM”.

— PMC12328218 (Nature, 2025)
